Literature values, collected in PMC8176454, “Synthesis and Assessment of Novel Probes for Imaging Tau Pathology in Transgenic Mouse and Rat Models” (ACS Chemical Neuroscience, 2021).

System: tau aggregates in P301S tau and GSK3-β X P301L tau (biGT) mice
Parameters: method as in PMID 26912432
Details: cited from earlier work

In the case of `CNc1ccc(-c2ccc3cc(OCC(O)C[18F])ccc3n2)cc1` (stereo not shown) [[^18F]THK5117], the “Binding to tau aggregates in two transgenic mouse models” value is listed as “bound to tau aggregates”.
